In ChEMBL document CHEMBL5291721, “A preclinical secondary pharmacology resource illuminates target-adverse drug reaction associations of marketed drugs” (Nat Commun, 2023) one finds AC50 data, which are given here for one compound.

The target of experiment [1] is T1, Corticotropin-releasing factor receptor 2 (Homo sapiens, UniProt Q13324).
T1 sequence (Q13324 whole entry): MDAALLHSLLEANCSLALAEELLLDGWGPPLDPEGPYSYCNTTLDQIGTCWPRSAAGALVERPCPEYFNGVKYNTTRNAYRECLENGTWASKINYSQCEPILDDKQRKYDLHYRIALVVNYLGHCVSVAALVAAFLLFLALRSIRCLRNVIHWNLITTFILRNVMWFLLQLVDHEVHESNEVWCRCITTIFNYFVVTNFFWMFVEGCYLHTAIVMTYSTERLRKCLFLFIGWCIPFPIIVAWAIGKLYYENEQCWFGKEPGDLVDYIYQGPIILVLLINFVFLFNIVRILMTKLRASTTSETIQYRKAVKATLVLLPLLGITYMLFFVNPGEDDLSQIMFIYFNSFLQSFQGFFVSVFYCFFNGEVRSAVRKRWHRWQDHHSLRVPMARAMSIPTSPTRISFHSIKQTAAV

The target in experiment [2] is Beta-3 adrenergic receptor (Homo sapiens, UniProt P13945).
Chain of Beta-3 adrenergic receptor (P13945 whole entry): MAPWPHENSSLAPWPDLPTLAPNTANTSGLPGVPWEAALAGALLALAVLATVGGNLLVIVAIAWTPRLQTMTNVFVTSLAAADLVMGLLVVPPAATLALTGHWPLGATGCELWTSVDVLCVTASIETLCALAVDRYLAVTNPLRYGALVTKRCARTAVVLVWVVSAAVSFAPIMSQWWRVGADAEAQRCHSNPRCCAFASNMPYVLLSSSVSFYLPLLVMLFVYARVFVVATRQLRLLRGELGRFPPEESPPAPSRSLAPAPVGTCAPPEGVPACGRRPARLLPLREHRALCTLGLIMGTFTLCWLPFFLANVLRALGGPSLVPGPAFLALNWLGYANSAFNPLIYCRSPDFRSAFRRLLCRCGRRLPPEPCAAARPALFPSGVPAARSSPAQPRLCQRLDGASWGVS
Experiment [3] addresses Gamma-aminobutyric acid receptor subunit alpha-1 (Rattus norvegicus, UniProt P62813).
The target in a further experiment is T2, Progesterone receptor (Homo sapiens, UniProt P06401).
T2 sequence (P06401 whole entry): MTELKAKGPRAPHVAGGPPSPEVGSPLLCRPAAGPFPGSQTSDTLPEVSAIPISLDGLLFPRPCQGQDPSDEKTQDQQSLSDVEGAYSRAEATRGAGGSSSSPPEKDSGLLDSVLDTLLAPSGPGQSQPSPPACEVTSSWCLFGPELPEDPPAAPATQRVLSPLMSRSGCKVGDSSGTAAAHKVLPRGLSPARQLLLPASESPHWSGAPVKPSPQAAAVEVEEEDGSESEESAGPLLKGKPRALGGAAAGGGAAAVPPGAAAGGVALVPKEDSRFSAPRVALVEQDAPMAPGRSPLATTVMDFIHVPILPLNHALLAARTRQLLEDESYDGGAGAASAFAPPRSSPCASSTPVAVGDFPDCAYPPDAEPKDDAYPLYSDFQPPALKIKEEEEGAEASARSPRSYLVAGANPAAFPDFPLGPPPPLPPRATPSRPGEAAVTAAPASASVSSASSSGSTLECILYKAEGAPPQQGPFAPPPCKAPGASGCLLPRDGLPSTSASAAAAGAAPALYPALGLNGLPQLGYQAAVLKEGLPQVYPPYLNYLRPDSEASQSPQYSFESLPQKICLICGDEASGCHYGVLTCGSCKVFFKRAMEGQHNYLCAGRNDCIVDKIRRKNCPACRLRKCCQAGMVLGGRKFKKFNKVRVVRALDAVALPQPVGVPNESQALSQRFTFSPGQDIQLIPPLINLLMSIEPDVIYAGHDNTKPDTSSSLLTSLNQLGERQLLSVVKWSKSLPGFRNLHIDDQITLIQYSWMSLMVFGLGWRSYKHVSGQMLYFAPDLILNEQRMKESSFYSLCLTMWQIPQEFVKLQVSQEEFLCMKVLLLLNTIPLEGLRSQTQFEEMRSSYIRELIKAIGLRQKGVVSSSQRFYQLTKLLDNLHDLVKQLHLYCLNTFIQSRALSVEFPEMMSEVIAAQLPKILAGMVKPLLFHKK

The target of another experiment is T3, D(4) dopamine receptor (Homo sapiens, UniProt P21917).
T3 sequence (P21917 whole entry): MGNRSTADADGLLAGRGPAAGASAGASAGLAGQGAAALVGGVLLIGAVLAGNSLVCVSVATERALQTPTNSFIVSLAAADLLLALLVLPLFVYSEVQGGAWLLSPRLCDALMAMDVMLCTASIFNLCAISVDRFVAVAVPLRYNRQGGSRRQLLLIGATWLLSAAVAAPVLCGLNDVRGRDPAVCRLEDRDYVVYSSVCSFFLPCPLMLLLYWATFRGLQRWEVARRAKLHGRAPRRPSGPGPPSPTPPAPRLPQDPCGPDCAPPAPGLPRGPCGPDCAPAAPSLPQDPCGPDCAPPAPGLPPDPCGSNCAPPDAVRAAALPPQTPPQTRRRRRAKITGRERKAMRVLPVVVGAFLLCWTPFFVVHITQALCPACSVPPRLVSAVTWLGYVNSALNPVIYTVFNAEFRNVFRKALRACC

In experiment [4] the target is T4, Muscarinic acetylcholine receptor M2 (Homo sapiens, UniProt P08172).
T4 sequence (P08172 whole entry): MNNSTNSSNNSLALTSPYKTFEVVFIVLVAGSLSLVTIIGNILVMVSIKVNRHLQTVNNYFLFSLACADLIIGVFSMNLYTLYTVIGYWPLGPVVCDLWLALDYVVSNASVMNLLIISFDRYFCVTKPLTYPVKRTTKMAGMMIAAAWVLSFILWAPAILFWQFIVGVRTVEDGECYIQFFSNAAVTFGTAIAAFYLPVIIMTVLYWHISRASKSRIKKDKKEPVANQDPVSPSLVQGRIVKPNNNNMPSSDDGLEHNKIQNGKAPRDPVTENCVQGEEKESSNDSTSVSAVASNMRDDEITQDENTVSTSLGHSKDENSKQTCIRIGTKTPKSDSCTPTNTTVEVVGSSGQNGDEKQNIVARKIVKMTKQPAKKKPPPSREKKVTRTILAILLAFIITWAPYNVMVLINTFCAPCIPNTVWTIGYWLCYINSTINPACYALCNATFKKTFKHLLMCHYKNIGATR

In experiment [5] the target is Neurotensin receptor type 1 (Homo sapiens, UniProt P30989).
Chain of Neurotensin receptor type 1 (P30989 whole entry): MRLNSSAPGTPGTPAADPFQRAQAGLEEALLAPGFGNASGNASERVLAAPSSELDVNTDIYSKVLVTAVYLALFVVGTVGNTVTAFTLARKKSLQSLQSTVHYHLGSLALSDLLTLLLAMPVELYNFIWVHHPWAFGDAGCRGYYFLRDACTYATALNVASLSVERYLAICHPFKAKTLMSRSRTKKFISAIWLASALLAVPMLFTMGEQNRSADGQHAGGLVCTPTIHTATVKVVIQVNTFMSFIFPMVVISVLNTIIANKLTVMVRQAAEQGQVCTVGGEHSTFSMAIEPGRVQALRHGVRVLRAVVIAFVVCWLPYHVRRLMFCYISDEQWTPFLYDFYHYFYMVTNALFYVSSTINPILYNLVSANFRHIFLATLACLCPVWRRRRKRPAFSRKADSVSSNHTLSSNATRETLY
Note: assay procedure not described here.

Chain of Gamma-aminobutyric acid receptor subunit alpha-1 (P62813 whole entry): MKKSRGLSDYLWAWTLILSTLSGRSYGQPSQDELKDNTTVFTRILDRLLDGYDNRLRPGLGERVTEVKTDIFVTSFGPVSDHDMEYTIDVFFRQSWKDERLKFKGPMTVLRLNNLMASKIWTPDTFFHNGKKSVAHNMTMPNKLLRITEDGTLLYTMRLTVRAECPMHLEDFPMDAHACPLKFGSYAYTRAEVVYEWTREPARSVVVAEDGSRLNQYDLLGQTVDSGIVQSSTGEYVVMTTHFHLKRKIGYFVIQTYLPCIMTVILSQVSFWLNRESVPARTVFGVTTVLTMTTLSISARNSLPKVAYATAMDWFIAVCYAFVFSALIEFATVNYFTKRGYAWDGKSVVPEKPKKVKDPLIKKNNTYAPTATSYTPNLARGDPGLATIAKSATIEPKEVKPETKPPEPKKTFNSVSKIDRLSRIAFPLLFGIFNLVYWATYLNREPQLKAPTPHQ

With `CCOC(=O)[C@H](CCc1ccccc1)N[C@@H](C)C(=O)N1Cc2ccccc2C[C@H]1C(=O)O`, the AC50 was > 30 µM in experiment [1]; > 30 µM in experiment [2]; > 30 µM in experiment [3]; > 30 µM at Progesterone receptor; > 10 µM on D(4) dopamine receptor; > 10 µM in experiment [4]. Also, the AC50 in experiment [5] was > 30 µM.
